Test results published in patent publication US8178544B2, “2, 3-diamino-quinazolinone derivatives and their medical use” (Neurosearch A/S, priority 2007, dated 2012).

Molecular target: T1, human Kv7.2+Kv7.3 channels (Homo sapiens, UniProt O43525+O43526)
T1 construct: expressed in transfected cells; host or cells: HEK293
Assay: Patch-clamp on HEK293 cell lines stably expressing human Kv7.2+Kv7.3 channels
Assay type: cell-based
Settings: current relative to baseline current defined as 100%, HEK293 cells, test concentration not given
Source text: The effect obtained by these channel activators is described as a percentage increase in baseline current at a given concentration. The baseline current is defined as 100%, and an increase in current is expressed relative to this, i.e. an increase from 1 nA to 1.2 nA is reported as 120%.

| IK (%) at −30 mV, 1 s [%] | Structure (SMILES) |
| --- | --- |
| 110 | CCN(CC)c1nc2ccc(O)cc2c(=O)n1NC(=O)Cc1cc(F)cc(F)c1 [Compound F1, N-(2-Diethylamino-6-hydroxy-4-oxo-4H-quinazolin-3-yl)-2-(3,5-difluoro-phenyl)-acetamide] |
| 150 | O=C(Cc1cc(F)cc(F)c1)Nn1c(N2CCCC2)nc2ccccc2c1=O [Compound C1, 2-(3,5-Difluoro-phenyl)-N-(4-oxo-2-pyrrolidin-1-yl-4H-quinazolin-3-yl)-acetamide] |
| 215 | CCN(CC)c1nc2ccc(F)cc2c(=O)n1NC(=O)Cc1cc(F)cc(F)c1 [Compound C19, N-(2-Diethylamino-6-fluoro-4-oxo-4H-quinazolin-3-yl)-2-(3,5-difluoro-phenyl)-acetamide] |
| 144 | CCN(CC)c1nc2ccccc2c(=O)n1NC(=O)Cc1ccc(Cl)cc1 [Compound C3, 2-(4-Chloro-phenyl)-N-(2-diethylamino-4-oxo-4H-quinazolin-3-yl)-acetamide] |
| 153 | O=C(Cc1ccc(C(F)(F)F)c(F)c1)Nn1c(N2CCCC2)nc2ccccc2c1=O [Compound C11, 2-(3-Fluoro-4-trifluoromethyl-phenyl)-N-(4-oxo-2-pyrrolidin-1-yl-4H-quinazolin-3-yl)-acetamide] |
| 143 | CC(C(=O)Nn1c(N(C)C)nc2cc(C(F)(F)F)ccc2c1=O)c1cc(F)cc(F)c1 (stereo not shown) [Compound C5, 2-(3,5-Difluoro-phenyl)-N-(2-dimethylamino-4-oxo-7-trifluoromethyl-4H-quinazolin-3yl)-propionamide] |
| 290 | CCN(CC)c1nc2ccccc2c(=O)n1NC(=O)Cc1cc(F)cc(F)c1 [Compound D2, N-(2-Diethylamino-4-oxo-4H-quinazolin-3-yl)-2-(3,5-difluoro-phenyl)-acetamide] |
